# Data reported in US12064426B2, “Selective inhibitors of ROCK1 and ROCK2 protein kinases and uses thereof” (GENOSCO Inc., priority 2021, dated 2024).
# Legend:
# [1] = target: T1, Recombinant ROCK2 (amino acids 5-554) (Homo sapiens, UniProt O75116); assay: ROCK inhibition assay, LANCE Ultra TR-FRET kinase assay (ROCK2); assay type: biochemical; conditions: 4 μM ATP, 50 nM ULight-CREBtide substrate
# T1 construct: ROCK2 (amino acids 5-554); by word order, ROCK2 from SignalChem
# Procedure, shortened: (§1)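 Reaction buffer 50 mM HEPES pH 7.5, 10 mM MgCl2, 1 mM EGTA, 2 mM DTT; kinase, ULight-CREBtide (50 nM) and ATP (ROCK1 1 μM, ROCK2 4 μM) react 1 h at room temperature. Phospho-Ser133 detected by europium antibody after 10 mM EDTA stop, TR-FRET ex 320 nm; IC50 calculated.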
# [2] = target: T2, Recombinant ROCK1 (amino acids 1-477) (Homo sapiens, UniProt Q13464); assay: ROCK inhibition assay, LANCE Ultra TR-FRET kinase assay (ROCK1); assay type: biochemical; conditions: 1 μM ATP, 50 nM ULight-CREBtide substrate
# T2 construct: Recombinant ROCK1 (amino acids 1-477); by word order, ROCK1 from Carna Biosciences
# Procedure, shortened: as §1
# T1 sequence (O75116 5-554): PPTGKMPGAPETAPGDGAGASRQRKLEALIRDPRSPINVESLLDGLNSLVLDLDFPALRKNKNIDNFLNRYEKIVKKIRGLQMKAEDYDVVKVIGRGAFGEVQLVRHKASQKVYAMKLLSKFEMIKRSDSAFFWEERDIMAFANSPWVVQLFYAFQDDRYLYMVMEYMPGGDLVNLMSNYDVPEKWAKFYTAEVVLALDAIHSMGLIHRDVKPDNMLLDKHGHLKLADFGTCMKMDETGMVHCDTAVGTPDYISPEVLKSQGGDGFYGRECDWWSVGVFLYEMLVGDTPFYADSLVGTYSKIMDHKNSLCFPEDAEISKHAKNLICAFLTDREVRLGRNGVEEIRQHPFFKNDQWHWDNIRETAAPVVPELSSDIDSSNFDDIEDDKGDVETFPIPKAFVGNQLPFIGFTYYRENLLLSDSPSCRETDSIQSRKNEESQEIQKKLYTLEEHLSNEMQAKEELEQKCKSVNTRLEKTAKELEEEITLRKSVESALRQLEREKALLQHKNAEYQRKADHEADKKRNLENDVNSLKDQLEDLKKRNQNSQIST
# T2 sequence (Q13464 1-477): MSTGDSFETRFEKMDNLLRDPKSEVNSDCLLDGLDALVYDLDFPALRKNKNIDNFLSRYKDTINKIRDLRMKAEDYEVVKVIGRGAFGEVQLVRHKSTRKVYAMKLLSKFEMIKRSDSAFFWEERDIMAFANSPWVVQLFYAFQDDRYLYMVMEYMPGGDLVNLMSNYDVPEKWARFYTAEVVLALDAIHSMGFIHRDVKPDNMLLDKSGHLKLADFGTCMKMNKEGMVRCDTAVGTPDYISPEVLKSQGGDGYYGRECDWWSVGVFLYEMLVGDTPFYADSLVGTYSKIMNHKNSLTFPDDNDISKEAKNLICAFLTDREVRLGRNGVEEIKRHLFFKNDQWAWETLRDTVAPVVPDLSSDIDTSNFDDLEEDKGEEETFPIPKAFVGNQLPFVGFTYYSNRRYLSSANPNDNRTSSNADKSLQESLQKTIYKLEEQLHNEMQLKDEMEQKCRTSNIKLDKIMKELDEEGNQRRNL
IC50 [1],IC50 [2],Compound
< 10 nM,11 to 100 nM,Cc1nocc1-c1ccc2c(=O)n(Cc3cc(F)cc(C(=O)NCC4CCNCC4)c3)ccc2c1 [Compound 150]
< 10 nM,11 to 100 nM,Cc1nocc1-c1ccc2c(=O)n(Cc3cc(F)cc(C(=O)Nc4ccc5c(c4)CNCC5)c3)ccc2c1 [Compound 160]
< 10 nM,< 10 nM,Cc1nocc1-c1ccc2c(=O)n(Cc3cc(F)cc(C(=O)Nc4ccc5c(c4)CCNC5)c3)ccc2c1 [Compound 162]
< 10 nM,< 10 nM,Cc1nocc1-c1ccc2c(=O)n(Cc3cc(F)cc(C(=O)Nc4ccc5c(c4)CCN(C)C5)c3)ccc2c1 [Compound 163]
10 to 100 nM,101 to 500 nM,Cn1nccc1-c1ccc2c(=O)n(Cc3cc(F)cc(C(=O)NC4CCOCC4)c3)ccc2c1 [Compound 166]
< 10 nM,11 to 100 nM,Cn1nccc1-c1ccc2c(=O)n(Cc3cccc(C(=O)NCC4CC(O)C4)c3)ccc2c1 (stereo not drawn) [Compound 167]
< 10 nM,< 10 nM,Cn1nccc1-c1ccc2c(=O)n(Cc3cccc(C(=O)NCC4CCNCC4)c3)ccc2c1 [Compound 169]
< 10 nM,11 to 100 nM,CN1CCC(CNC(=O)c2cc(F)cc(Cn3ccc4cc(-c5ccnn5C)ccc4c3=O)c2)CC1 [Compound 172]

# More lines, now with the values behind:
Compound,IC50 [1],IC50 [2]
Cc1nocc1-c1ccc2c(=O)n(Cc3cc(F)cc(C(=O)NCC4CCN(C5CC5)CC4)c3)ccc2c1 [Compound 151],< 10 nM,11 to 100 nM
Cc1nocc1-c1ccc2c(=O)n(Cc3cc(F)cc(C(=O)NCC4CCN(C(C)C)CC4)c3)ccc2c1 [Compound 152],10 to 100 nM,101 to 500 nM
Cc1nocc1-c1ccc2c(=O)n(Cc3cc(F)cc(C(=O)NCC4CCN(CC(F)(F)F)CC4)c3)ccc2c1 [Compound 153],< 10 nM,101 to 500 nM
Cc1nocc1-c1ccc2c(=O)n(Cc3cc(F)cc(C(=O)NCC4CCN(C5COC5)CC4)c3)ccc2c1 [Compound 154],< 10 nM,101 to 500 nM
Cc1nocc1-c1ccc2c(=O)n(Cc3cc(F)cc(C(=O)Nc4ccn(C)n4)c3)ccc2c1 [Compound 156],< 10 nM,11 to 100 nM
Cc1nocc1-c1ccc2c(=O)n(Cc3cc(F)cc(C(=O)Nc4nc5c(s4)CCNC5)c3)ccc2c1 [Compound 157],< 10 nM,11 to 100 nM
Cc1nocc1-c1ccc2c(=O)n(Cc3cc(F)cc(C(=O)Nc4nc5c(s4)CCN(C)C5)c3)ccc2c1 [Compound 158],< 10 nM,11 to 100 nM
Cc1nocc1-c1ccc2c(=O)n(Cc3cc(F)cc(C(=O)Nc4nc5c(s4)CCN(C(C)C)C5)c3)ccc2c1 [Compound 159],< 10 nM,11 to 100 nM
Cc1nocc1-c1ccc2c(=O)n(Cc3cc(F)cc(C(=O)Nc4ccc5c(c4)CN(C4CC4)CC5)c3)ccc2c1 [Compound 161],< 10 nM,11 to 100 nM
Cn1nccc1-c1ccc2c(=O)n(Cc3cc(F)cc(C(=O)N[C@H]4CC[C@H](O)CC4)c3)ccc2c1 [Compound 164],10 to 100 nM,101 to 500 nM
CN1CC(CNC(=O)c2cccc(Cn3ccc4cc(-c5ccnn5C)ccc4c3=O)c2)C1 [Compound 168],< 10 nM,< 10 nM
Cn1nccc1-c1ccc2c(=O)n(Cc3cccc(C(=O)NCC4CCN(CC(F)F)CC4)c3)ccc2c1 [Compound 170],< 10 nM,11 to 100 nM
CN1CCC(CNC(=O)c2cccc(Cn3ccc4cc(-c5ccnn5C)ccc4c3=O)c2)CC1 [Compound 171],< 10 nM,11 to 100 nM
Cn1nccc1-c1ccc2c(=O)n(Cc3cc(F)cc(C(=O)NCC4CCNCC4)c3)ccc2c1 [Compound 173],< 10 nM,11 to 100 nM
Cn1nccc1-c1ccc2c(=O)n(Cc3cc(F)cc(C(=O)NCc4ccc(F)nc4)c3)ccc2c1 [Compound 174],< 10 nM,11 to 100 nM
CC(C)N1CCC(NC(=O)c2cc(F)cc(Cn3ccc4cc(-c5ccnn5C)ccc4c3=O)c2)CC1 [Compound 175],10 to 100 nM,101 to 500 nM
